Reference: PMC10726358 (Journal of Medicinal Chemistry, 2023)
pIC50: −log10 of the molar value. Converted amounts (≈) assume the structure as drawn. “And” between values parts separate entries of the source, which are not always exact repeats. Equal entries are not always repeated. Structures can show the parent of a compound that is named as a salt. Where two headings read alike, the source gives them in different places.

Columns and labels:
[1] = Chromatographic LogD at pH 7.4
MCP-1 = test: LPS-stimulated human whole blood (hWB) MCP-1 release assay; assay type: cell-based; details: for IC50: read-out: hWB MCP-1 pIC50 (converted)
From the text: The utility of a chemical probe in target validation is directly related to its quality, with important publications detailing requirements to aid researchers.[36]−[38] […] It was accepted that selectivity would be judged initially through a mutant BRD4 TR-FRET assay and would likely shift depending on the protein construct and assay format. […] Previous studies have shown that BET BD1 inhibition is sufficient to inhibit in vitro production of MCP-1 in LPS-stimulated hWB and, as such, served as a relevant measure of cellular target engagement and, concomitantly, proof of cellular permeability.[12],[39] Selectivity over other human bromodomains outside of the BET family, known collectively as non-BET bromodomains, was also required,[40] with a ≥ 100-fold selectivity window targeted. To ensure the molecules remained within developable chemical space, a target property forecast index (PFI) as defined by chromLogDpH7.4 + number of aromatic rings ≤6 was set.[41]
(§1) To understand cellular target engagement, 21 was tested in an LPS-stimulated hWB assay measuring inhibition of the inflammatory mediator MCP-1 secretion.
(§2) All TR-FRET and hWB cytokine assays have been described previously.[54]

BRD4 BD1 = assay type: binding, human; details: TR-FRET
Experimental: (§3) As a strategic decision, every compound synthesized across all of GSK’s bromodomain research projects was tested in both a BRD4 BD1 and a BRD4 BD2 TR-FRET assay as part of tier 1 data generation. […] LipE is a straightforward, yet powerful metric for medicinal chemistry teams to normalize potency relative to lipophilicity, a critical factor both for parameters of the human dose equation and also for promiscuity.[43],[44] To aid interpretation, diagonal lines representing different LipE values are shown, with the most desirable space found toward the top left-hand area of the plot representing molecules with the comparatively highest potency per unit of lipophilicity.
as §2

CAD aqueous solubility = test: CAD aqueous solubility
Experimental: as §1
ChromatographicLogD at pH 7.4, artificial membrane permeability, CLND solubility, and CAD solubility were measured using published protocols.[55]

BRD4 BD2 = BRD4 BD2 TR-FRET assay; assay type: binding, human
Experimental: as §3, §2

[2] = CLND kinetic aqueous solubility
[3] = LPS-stimulated human whole blood

Row | Structure (SMILES) | chromatographic logD ([1]; pH 7.4) | IC50 (MCP-1; [3]) | BRD4 BD1 FRET pIC50 (BRD4 BD1) | fold selectivity (BRD4 BD1 over BRD4 BD2) (BRD4 BD1) | solubility (CAD aqueous solubility) | BRD4 BD2 FRET pIC50 (BRD4 BD2) | solubility ([2]; aqueous) | PFI (property forecast index) ([1]; chromLogDpH7.4 + number of aromatic rings) | pIC50 (BRD4 BD1; read-out: BRD4 BD1 potency (IC50)) | chromLogDpH7.4 ([1]; pH 7.4) | pIC50 (MCP-1; LPS-stimulated human whole blood, read-out: hWB MCP-1 IC50) | drop of hWB activity compared to BRD4 BD1 potency (MCP-1; hWB MCP-1 vs BRD4 BD1 TR-FRET) | solubility [2]
1 | Cc1cc(-c2nc3ccccc3n2C[C@@H]2CCCN(C(=O)[C@H]3C[C@H](N)C3)C2)cn(C)c1=O [Compound 23, 5-(1-(((S)-1-((1r,3S)-3-Aminocyclobutane-1-carbonyl)piperidin-3-yl)methyl)-1H-benzo[d]imidazole-2-yl)-1,3-dimethylpyridin-2(1H)-one] | 1.2 | 200 nM | 7.9 | 316 fold | ≥ 230 µg/mL | 5.4 | – | – | – | – | – | – | –
2 | Cc1cc(-c2nc3ccccc3n2C[C@@H]2CCCN(C(=O)C3CCNCC3)C2)cn(C)c1=O [Compound 27, (S)-1,3-Dimethyl-5-(1-((1-(piperidine-4-carbonyl)piperidin-3-yl)methyl)-1H-benzo[d]imidazole-2-yl)pyridin-2(1H)-one] | 1.3 | 1000 nM | 7.5 | 398 fold | ≥ 215 µg/mL | 4.9 | – | – | – | – | – | – | –
3 | Cc1cc(-c2nc3ccccc3n2C[C@@H]2CCCN(C(=O)C3CCOCC3)C2)cn(C)c1=O [Compound 32, (S)-1,3-Dimethyl-5-(1-((1-(tetrahydro-2H-pyran-4-carbonyl)piperidin-3-yl)methyl)-1H-benzo[d]imidazole-2-yl)pyridin-2(1H)-one] | 2.7 | 794 nM | 6.7 | 100 fold | ≥ 245 µg/mL | 4.7 | – | – | – | – | – | – | –
4 | Cc1cc(-c2nc3ccccc3n2C[C@@H]2CCCN(C(=O)[C@H]3CC[C@H](N)C3)C2)cn(C)c1=O [Compound 25, 5-(1-(((S)-1-((1S,3S)-3-Aminocyclopentane-1-carbonyl)piperidin-3-yl)methyl)-1H-benzo[d]imidazole-2-yl)-1,3-dimethylpyridin-2(1H)-one] | 1.4 | 1000 nM | 7.7 | 500 fold and 501 fold | ≥ 157 µg/mL | 5.0 | – | – | – | – | – | – | –
5 | Cc1cc(-c2nc3ccccc3n2C[C@@H]2CCCN(C(=O)C3CCN(C)CC3)C2)cn(C)c1=O [Compound 30, (S)-1,3-Dimethyl-5-(1-((1-(1-methylpiperidine-4-carbonyl)piperidin-3-yl)methyl)-1H-benzo[d]imidazole-2-yl)pyridin-2(1H)-one] | 1.5 | 251 nM | 7.6 | 631 fold | ≥ 237 µg/mL | 4.8 | – | – | – | – | – | – | –
6 | CC(=O)N1CCC[C@H](Cn2c(-c3cc(C)c(=O)n(C)c3)nc3ccccc32)C1 [(R)-12, (R)-5-(1-((1-Acetylpiperidin-3-yl)methyl)-1H-benzo[d]imidazole-2-yl)-1,3-dimethylpyridin-2(1H)-one] | 2.3 | – | 7.5 | 16 fold | – | 6.3 | ≥ 169 µg/mL | – | – | – | – | – | –
7 | CC(=O)N1CCC(C(=O)N2CCC[C@@H](Cn3c(-c4cc(C)c(=O)n(C)c4)nc4ccccc43)C2)CC1 [Compound 33, (S)-5-(1-((1-(1-Acetylpiperidine-4-carbonyl)piperidin-3-yl)methyl)-1H-benzo[d]imidazole-2-yl)-1,3-dimethylpyridin-2(1H)-one] | 2.2 | 2000 nM | 6.5 | 63 fold | ≥ 205 µg/mL | 4.7 | – | – | – | – | – | – | –
8 | CC(=O)N1CCC[C@@H](Cn2c(-c3cc(C)c(=O)n(C)c3)nc3ccccc32)C1 [(S)-12, (S)-5-(1-((1-Acetylpiperidin-3-yl)methyl)-1H-benzo[d]imidazole-2-yl)-1,3-dimethylpyridin-2(1H)-one] | 2.2 | – | 8.0 | 63 fold | – | 6.2 | ≥ 247 µg/mL | 5.2 | 8.00 | – | – | – | –
9 | Cc1cc(-c2nc3ccccc3n2C[C@@H]2CCCN(C(=O)C3CCCN(C)C3)C2)cn(C)c1=O (stereo partly drawn) [Compound 29, 1,3-Dimethyl-5-(1-(((3S)-1-(1-methylpiperidine-3-carbonyl)piperidin-3-yl)methyl)-1H-benzo[d]imidazole-2-yl)pyridin-2(1H)-one] | 1.7 | 1580 nM | 6.8 | 50 fold | ≥ 204 µg/mL | 5.1 | – | – | – | – | – | – | –
10 | Cc1cc(-c2nc3ccccc3n2C[C@@H]2CCCN(C(=O)c3cnc[nH]3)C2)cn(C)c1=O [Compound 26, (S)-5-(1-((1-(1H-Imidazole-5-carbonyl)piperidin-3-yl)methyl)-1H-benzo[d]imidazole-2-yl)-1,3-dimethylpyridin-2(1H)-one, Formic Acid Salt] | 1.9 | 2510 nM | 7.0 | 126 fold | ≥ 160 µg/mL | 4.9 | – | – | – | – | – | – | –
11 | Cc1cc(-c2nc3ccccc3n2C[C@@H]2CCCN(C(=O)C3CCN(CC(F)(F)F)CC3)C2)cn(C)c1=O [Compound 36, (S)-1,3-Dimethyl-5-(1-((1-(1-(2,2,2-trifluoroethyl)piperidine-4-carbonyl)piperidin-3-yl)methyl)-1H-benzo[d]imidazole-2-yl)pyridin-2(1H)-one] | 4.2 | 1260 nM | 6.3 | 40 fold | ≥ 201 µg/mL | 4.7 | – | – | – | – | – | – | –
12 | Cc1cc(-c2nc3ccccc3n2CC2CCOCC2)cn(C)c1=O [Compound 13] | – | – | 7.2 | 6 fold | – | 6.4 | ≥ 142 µg/mL | – | – | 2.7 | – | – | –
13 | Cc1cc(-c2nc3ccccc3n2C[C@@H]2CCCN(C(=O)CCCN)C2)cn(C)c1=O [Compound 21, (S)-5-(1-((1-(4-Aminobutanoyl)piperidin-3-yl)methyl)-1H-benzo[d]imidazole-2-yl)-1,3-dimethylpyridin-2(1H)-one] | 1.2 | 501 nM | 7.8 | 158 fold | 113 µg/mL (≈ 268 µM) | 5.6 | – | – | – | – | 6.30 | 40 fold | –
14 | Cc1cc(-c2nc3ccccc3n2C[C@@H]2CCCN(C(=O)[C@H]3CCNC3)C2)cn(C)c1=O [Compound 24, 1,3-Dimethyl-5-(1-(((S)-1-((S)-pyrrolidine-3-carbonyl)piperidin-3-yl)methyl)-1H-benzo[d]imidazole-2-yl)pyridin-2(1H)-one] | 1.3 | 1000 nM | 7.6 | 200 fold | ≥ 208 µg/mL | 5.3 | – | – | – | – | – | – | –
15 | CC(=O)N1CCC[C@@H](Cn2c(-c3cc(C)c(=O)n(C)c3)nc3cc(Br)ccc32)C1 [Compound 14, (S)-5-(1-((1-Acetylpiperidin-3-yl)methyl)-5-bromo-1H-benzo[d]imidazole-2-yl)-1,3-dimethylpyridin-2(1H)-one] | 3.3 | – | 8.0 ± 0.06 (2) | 50 fold | – | 6.3 ± 0.01 (2) | – | – | – | – | – | – | ≥ 250 µg/mL
16 | Cc1cc(-c2nc3ccccc3n2C[C@@H]2CCCN(C(=O)C3CCC(N)CC3)C2)cn(C)c1=O (stereo in doubt) [Compound 28, 5-(1-(((S)-1-((1r,4R)-4-Aminocyclohexane-1-carbonyl)piperidin-3-yl)methyl)-1H-benzo [d]imidazole-2-yl)-1,3-dimethylpyridin-2(1H)-one] | 1.4 | 316 nM | 7.9 | 631 fold | ≥ 155 µg/mL | 5.1 | – | – | – | – | – | – | –
17 | Cc1cc(-c2nc3ccccc3n2C[C@@H]2CCCN(C(=O)C3CNC3)C2)cn(C)c1=O [Compound 22, (S)-5-(1-((1-(Azetidine-3-carbonyl)piperidin-3-yl)methyl)-1H-benzo[d]imidazole-2-yl)-1,3-dimethylpyridin-2(1H)-one] | 1.2 | 631 nM | 8.0 | 126 fold | ≥ 169 µg/mL | 5.9 | – | – | – | – | – | – | –
